Assay results taken from patent publication US10072005B2, “4-azaindole derivatives” (EISAI R&D MANAGEMENT CO., LTD., priority 2013, dated 2018).

Molecular target: mAChR M1 (Homo sapiens, UniProt P11229)
Experiment: In vitro cellular calcium flux assay, positive allosteric modulation of mAChR M1
Assay type: cell-based
Conditions: for pEC50 for positive allosteric modulation: BHK cells expressing mAChR M1, EC20 carbachol, Examples 76-80 and 82-89 slightly modified procedure
Protocol: Baby hamster kidney cells stably expressing human or rat mAChR M1 to M5 were utilised for primary and selectivity profiling activities. mAChR M2 and M4 cell lines also stably expressed the chimeric Gαqi5 G-protein.
Human mAChR M1, M3, M5 and rat M1 cells were grown in low glucose Dulbecco's Modified Eagle's Medium (DMEM) medium plus heat inactivated 10% fetal bovine serum (HI FBS) and 500 μg/ml hygromycin B^1. Human mAChR M2 and M4 cells were maintained as above with^2 the addition of 500 μg/ml G418 to the media. Cells were maintained in culture at 37° C./5% CO2 and passaged twice weekly by treatment with 0.05% Trypsin/EDTA detachment solution, centrifugation (200 g, 5 min) and re-suspension in fresh media. Following cell expansion, cells were cryopreserved at −80° C. by treatment with 0.05% Trypsin/EDTA detachment solution, centrifugation (200 g, 5 min) and re-suspension of the pellet in freezing media (90% HI FBS/10% DMSO^3) at 15E6 cells/ml^4.
Prior to assaying, cells were prepared by thawing at 37° C. in a water bath, centrifugation (200 g, 5 min) and re-suspension of the pellet in fresh media. 15000 cells per well were seeded in black, clear bottomed 384-well Greiner Bio-One plates in plating medium (DMEM/10% HI FBS) and incubated overnight at 37 C/5% CO2.
On the day of the assay, media was removed from each well and replaced with 50 μl^5 assay buffer (HBSS with 20 mM HEPES and 2.5 mM Probenecid) containing the calcium indicator, Calcium 4 (Molecular Devices). Cells were then incubated at 37° C./5% CO2 for 30 min and at room temperature.
Compound preparation was carried out by generation of 11-point, 1 in 3 serial dilution concentration response curves in 100% DMSO. Compound was then diluted 1 in 65^6 with assay buffer (HBSS with 20 mM HEPES and 2.5 mM Probenecid) prior to the addition of 10 ul^7 to the cells using a Tetra fluorometric imaging plate reader (Molecular Devices)^8. Compound driven increases in intracellular calcium flux was measured as an increase in fluorescence (494Ex, 516Em)^9.
Positive allosteric modulator pEC50 values and antagonist pIC50 values for each compound were then determined. […] The points of modification and the alternate reagents, concentrations or equipment employed in these examples were: ^1200 μg/ml hygromycin B; ^2G418 not added; ^3CELLBANKER 1; ^410E6; ^5 40 μl; ^6 1 in 99; ^7 20 μl; ^8FDSS6000 (Hamamatsu Photonics); ^9(480Ex, 540Em); ^10Spotfire (TIBCO).

Chain of mAChR M1 (P11229 whole entry, looked up): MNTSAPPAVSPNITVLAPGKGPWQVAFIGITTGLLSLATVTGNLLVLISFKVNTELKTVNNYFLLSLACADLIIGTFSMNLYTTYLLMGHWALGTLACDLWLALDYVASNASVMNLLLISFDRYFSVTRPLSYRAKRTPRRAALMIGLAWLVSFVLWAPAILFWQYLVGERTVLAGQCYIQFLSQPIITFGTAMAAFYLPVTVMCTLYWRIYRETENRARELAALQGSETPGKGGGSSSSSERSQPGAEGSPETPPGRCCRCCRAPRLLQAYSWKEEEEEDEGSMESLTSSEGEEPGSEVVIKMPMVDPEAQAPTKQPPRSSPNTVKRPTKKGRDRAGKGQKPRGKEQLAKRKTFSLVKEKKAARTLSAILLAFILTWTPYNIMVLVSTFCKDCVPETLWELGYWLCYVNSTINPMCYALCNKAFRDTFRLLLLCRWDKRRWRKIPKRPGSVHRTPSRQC

SMILES | pEC50 for positive allosteric modulation | EC50 [nM]
Cc1cc(-c2ccc(Cn3cc(C(=O)N[C@H]4CCCC[C@@H]4O)c4ncccc43)c(F)c2)ccn1 [Example 45, 1-(2-Fluoro-4-(2-methylpyridin-4-yl)benzyl)-N-((1S,2S)-2-hydroxycyclohexyl)-1H-pyrrolo[3,2-b]pyridine-3-carboxamide] | 7.5 | –
O=C(NC1CCCCC1)c1cn(Cc2ccc(-n3cccn3)cc2)c2cccnc12 [Example 50, 1-(4-(1H-Pyrazol-1-yl)benzyl)-N-cyclohexyl-1H-pyrrolo[3,2-b]pyridine-3-carboxamide] | 6.4 | –
O=C(NC1CCC(F)(F)CC1)c1cn(Cc2ccc(-n3cccn3)cc2)c2cccnc12 [Example 51, 1-(4-(1H-Pyrazol-1-yl)benzyl)-N-(4,4-difluorocyclohexyl)-1H-pyrrolo[3,2-b]pyridine-3-carboxamide] | 6.3 | –
O=C(N[C@H]1CCCNC1)c1cn(Cc2ccc(-n3cccn3)cc2)c2cccnc12 [Example 52, (S)-1-(4-(1H-Pyrazol-1-yl)benzyl)-N-(piperidin-3-yl)-1H-pyrrolo[3,2-b]pyridine-3-carboxamide] | 6.7 | –
O=C(N[C@@H]1CCCNC1)c1cn(Cc2ccc(-n3cccn3)cc2)c2cccnc12 [Example 53, (R)-1-(4-(1H-Pyrazol-1-yl)benzyl)-N-(piperidin-3-yl)-1H-pyrrolo[3,2-b]pyridine-3-carboxamide] | 6.2 | –
CN1CCC[C@H](NC(=O)c2cn(Cc3ccc(-n4cccn4)cc3)c3cccnc23)C1 [Example 54, (S)-1-(4-(1H-Pyrazol-1-yl)benzyl)-N-(1-methylpiperidin-3-yl)-1H-pyrrolo[3,2-b]pyridine-3-carboxamide] | 7.5 | –
CN1CCC[C@@H](NC(=O)c2cn(Cc3ccc(-n4cccn4)cc3)c3cccnc23)C1 [Example 55, (R)-1-(4-(1H-Pyrazol-1-yl)benzyl)-N-(1-methylpiperidin-3-yl)-1H-pyrrolo[3,2-b]pyridine-3-carboxamide] | 6.7 | –
O=C(N[C@H]1CCCC[C@@H]1O)c1cn(Cc2ccc(Br)cc2)c2cccnc12 [Example 56, 1-(4-Bromobenzyl)-N-((1S,2S)-2-hydroxycyclohexyl)-1H-pyrrolo[3,2-b]pyridine-3-carboxamide] | 6.5 | –
Cn1cc(-c2ccc(Cn3cc(C(=O)N[C@H]4CCCC[C@@H]4O)c4ncccc43)cc2)cn1 [Example 57, N-((1S,2S)-2-Hydroxycyclohexyl)-1-(4-(1-methyl-1H-pyrazol-4-yl)benzyl)-1H-pyrrolo[3,2-b]pyridine-3-carboxamide] | 7.6 | –
COc1ccc(Cn2cc(C(=O)N[C@H]3CCCC[C@@H]3O)c3nccc(Cl)c32)cc1 [Example 58, 7-Chloro-N-((1S,2S)-2-hydroxycyclohexyl)-1-(4-methoxybenzyl)-1H-pyrrolo[3,2-b]pyridine-3-carboxamide] | 7.7 | –
Cc1ccnc2c(C(=O)N[C@H]3CCCC[C@@H]3O)cn(Cc3ccc(Cl)nc3)c12 [Example 59, 1-((6-Chloropyridin-3-yl)methyl)-N-((1S,2S)-2-hydroxycyclohexyl)-7-methyl-1H-pyrrolo[3,2-b]pyridine-3-carboxamide] | 7.4 | –
Cc1ccnc2c(C(=O)N[C@H]3CCCC[C@@H]3O)cn(Cc3ccc(Cl)cc3)c12 [Example 60, 1-(4-Chlorobenzyl)-N-((1S,2S)-2-hydroxycyclohexyl)-7-methyl-1H-pyrrolo[3,2-b]pyridine-3-carboxamide] | 7.8 | –
Cc1ccc(Cn2cc(C(=O)N[C@H]3CCCC[C@@H]3O)c3nccc(Cl)c32)nc1 [Example 61, 7-Chloro-N-((1S,2S)-2-hydroxycyclohexyl)-1-((5-methylpyridin-2-yl)methyl)-1H-pyrrolo[3,2-b]pyridine-3-carboxamide] | 7.0 | –
Cc1ccc(Cn2cc(C(=O)N[C@H]3CCCC[C@@H]3O)c3nccc(Cl)c32)cn1 [Example 62, 7-Chloro-N-((1S,2S)-2-hydroxycyclohexyl)-1-((6-methylpyridin-3-yl)methyl)-1H-pyrrolo[3,2-b]pyridine-3-carboxamide] | 7.4 | –
Cc1ccc(Cn2cc(C(=O)N[C@H]3CCCC[C@@H]3O)c3nccc(C)c32)cc1 [Example 63, N-((1S,2S)-2-Hydroxycyclohexyl)-7-methyl-1-(4-methylbenzyl)-1H-pyrrolo[3,2-b]pyridine-3-carboxamide] | 7.6 | –
Cc1ccc(Cn2cc(C(=O)N[C@H]3CCCC[C@@H]3O)c3nccc(C)c32)nc1 [Example 64, N-((1S,2S)-2-Hydroxycyclohexyl)-7-methyl-1-((5-methylpyridin-2-yl)methyl)-1H-pyrrolo[3,2-b]pyridine-3-carboxamide] | 7.2 | –
Cc1ccnc2c(C(=O)N[C@H]3CCCC[C@@H]3O)cn(Cc3cccc(F)c3)c12 [Example 65, 1-(3-Fluorobenzyl)-N-((1S,2S)-2-hydroxycyclohexyl)-7-methyl-1H-pyrrolo[3,2-b]pyridine-3-carboxamide] | 7.7 | –
COc1ccc(Cn2cc(C(=O)N[C@H]3CCCC[C@@H]3O)c3nccc(C)c32)cc1C [Example 66, N-((1S,2S)-2-Hydroxycyclohexyl)-1-(4-methoxy-3-methylbenzyl)-7-methyl-1H-pyrrolo[3,2-b]pyridine-3-carboxamide] | 7.9 | –
COc1ccc(Cn2cc(C(=O)N[C@H]3CCCC[C@@H]3O)c3nccc(C)c32)cn1 [Example 67, N-((1S,2S)-2-Hydroxycyclohexyl)-1-((6-methoxypyridin-3-yl)methyl)-7-methyl-1H-pyrrolo[3,2-b]pyridine-3-carboxamide] | 7.5 | –
COc1ccc(Cn2cc(C(=O)N[C@H]3CCCC[C@@H]3O)c3nccc(Cl)c32)cn1 [Example 68, 7-Chloro-N-((1S,2S)-2-hydroxycyclohexyl)-1-((6-methoxypyridin-3-yl)methyl)-1H-pyrrolo[3,2-b]pyridine-3-carboxamide] | 7.7 | –
COc1cc(Cn2cc(C(=O)N[C@H]3CCCC[C@@H]3O)c3nccc(Cl)c32)ccn1 [Example 69, 7-Chloro-N-((1S,2S)-2-hydroxycyclohexyl)-1-((2-methoxypyridin-4-yl)methyl)-1H-pyrrolo[3,2-b]pyridine-3-carboxamide] | 8.0 | –
N#Cc1ccc(Cn2cc(C(=O)N[C@H]3CCCC[C@@H]3O)c3nccc(Cl)c32)cn1 [Example 70, 7-Chloro-1-((6-cyanopyridin-3-yl)methyl)-N-((1S,2S)-2-hydroxycyclohexyl)-1H-pyrrolo[3,2-b]pyridine-3-carboxamide] | – | 100
COc1cc(Cn2cc(C(=O)N[C@H]3CCCC[C@@H]3O)c3nccc(C)c32)ccn1 [Example 71, N-((1S,2S)-2-Hydroxycyclohexyl)-1-((2-methoxypyridin-4-yl)methyl)-7-methyl-1H-pyrrolo[3,2-b]pyridine-3-carboxamide] | 7.9 | –
Cn1cc(Cn2cc(C(=O)N[C@H]3CCCC[C@@H]3O)c3nccc(Cl)c32)cn1 [Example 72, 7-Chloro-N-((1S,2S)-2-hydroxycyclohexyl)-1-((1-methyl-1H-pyrazol-4-yl)methyl)-1H-pyrrolo[3,2-b]pyridine-3-carboxamide] | 7.8 | –
Cc1ccnc2c(C(=O)N[C@H]3CCCC[C@@H]3O)cn(Cc3cnn(C)c3)c12 [Example 73, N-((1S,2S)-2-Hydroxycyclohexyl)-7-methyl-1-((1-methyl-1H-pyrazol-4-yl)methyl)-1H-pyrrolo[3,2-b]pyridine-3-carboxamide] | 7.9 | –
Cc1csc(Cn2cc(C(=O)N[C@H]3CCCC[C@@H]3O)c3nccc(Cl)c32)n1 [Example 74, 7-Chloro-N-((1S,2S)-2-hydroxycyclohexyl)-1-((4-methylthiazol-2-yl)methyl)-1H-pyrrolo[3,2-b]pyridine-3-carboxamide] | 6.7 | –
Cc1cnc(Cn2cc(C(=O)N[C@H]3CCCC[C@@H]3O)c3nccc(Cl)c32)s1 [Example 75, 7-Chloro-N-((1S,2S)-2-hydroxycyclohexyl)-1-((5-methylthiazol-2-yl)methyl)-1H-pyrrolo[3,2-b]pyridine-3-carboxamide] | 6.6 | –
